According to patent US5922748A, “Indole derivatives as 5-HT agonists” (Glaxo Wellcome Inc., priority 1994, dated 1999):
Read-outs that look alike come from different tables or passages of the source.

Experiments:
[1] = target: T1, "5-HT1 -like" receptor mediating smooth muscle contraction (Oryctolagus cuniculus, UniProt P49144); assay: Rabbit Saphenous Vein Assay (contraction of isolated ring segments); assay type: cell-based, male New Zealand White Rabbits; details: antagonism, given where compounds were found to be antagonists
T1 construct: Right and left lateral saphenous veins were obtained from male New Zealand White Rabbits; from tissue; host or cells: rabbit lateral saphenous vein ring segments

[2] = target: T1, "5-HT1 -like" receptor mediating smooth muscle contraction; assay: as above; assay type: cell-based, male New Zealand White Rabbits; details: for Emax: read-out: (α)
Method: A: Rabbit Saphenous Vein Assay
Compounds of formula (I) prepared in Synthetic Examples 1 to 17 were each tested for their activity as agonists […] for the "5-HT1 -like" receptor mediating smooth muscle contraction by the following method.
[…]. Cocaine (30 μM) was present in the Krebs' solution throughout the experiment to prevent the uptake of amines by sympathetic neurones. The Krebs' solution was maintained at 37° C. and continually gassed with 95% oxygen/5% carbon dioxide. Increases in tissue isometric force were measure using Grass FT03C force displacement transducers and recorded on a Gould BD-212 pen recorder.
A force of 1.0 g was applied to each preparation and re-established twice during a subsequent period of 30 minutes.
Agonist activity was assessed by […] additions of the test compound, its concentration being increased in 0.5 log10 unit increments until further additions caused no further change in tissue force. In each experiment, the activity of the test compound was compared to the activity of 5-HT.

"5-HT1 -like" receptor = target: T2, "5-HT1 -like" receptor (Bos taurus, UniProt F1MGM3); assay: Calf Caudate Assay (competition binding with [3H]-5HT, calf caudate nucleus membranes); details: 3.5 nM [3H]-5HT with 15 μM mesulergine and 15 μM 8-OH-DPAT, text says pIC50 converted by Cheng-Prusoff
T2 construct: Membranes were prepared from homogenates of calf caudate nucleus; from tissue; host or cells: calf caudate nucleus membranes

[3] = agonism, rabbit saphenous vein rings, 37° C., pH 7.4, compared to 5-HT, read-out: pA50 (converted)
[4] = value in parentheses after pA50 in Table 1, rabbit saphenous vein, compared to 5-HT

T1 sequence (P49144 whole entry): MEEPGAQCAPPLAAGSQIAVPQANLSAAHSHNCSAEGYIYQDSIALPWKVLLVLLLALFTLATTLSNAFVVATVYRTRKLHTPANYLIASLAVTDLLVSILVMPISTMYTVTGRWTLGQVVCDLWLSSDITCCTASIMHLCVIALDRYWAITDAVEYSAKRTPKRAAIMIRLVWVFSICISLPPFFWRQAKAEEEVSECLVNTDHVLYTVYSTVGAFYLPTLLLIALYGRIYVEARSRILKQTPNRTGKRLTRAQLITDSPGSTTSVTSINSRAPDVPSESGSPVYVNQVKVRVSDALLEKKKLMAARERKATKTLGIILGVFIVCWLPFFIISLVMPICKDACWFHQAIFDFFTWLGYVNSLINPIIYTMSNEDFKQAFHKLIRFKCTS
T2 sequence (F1MGM3 1-403): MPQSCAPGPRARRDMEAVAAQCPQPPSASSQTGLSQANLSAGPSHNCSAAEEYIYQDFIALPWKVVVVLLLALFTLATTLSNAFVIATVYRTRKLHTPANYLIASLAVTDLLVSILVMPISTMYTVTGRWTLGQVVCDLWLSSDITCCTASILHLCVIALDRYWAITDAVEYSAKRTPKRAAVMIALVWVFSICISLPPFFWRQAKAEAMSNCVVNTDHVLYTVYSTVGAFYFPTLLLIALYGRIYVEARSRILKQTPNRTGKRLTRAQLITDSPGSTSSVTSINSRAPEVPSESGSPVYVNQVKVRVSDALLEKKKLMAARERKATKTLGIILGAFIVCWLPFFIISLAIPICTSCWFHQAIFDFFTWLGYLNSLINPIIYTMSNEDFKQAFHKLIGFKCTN

Work on “4-[3-(trans-3dimethylaminocyclobut-1-ylmethyl)-1H-indol-5-ylmethyl]-(4S)oxazolidin-2-one [Example 19]” yielded a pKb [1] of 5.73.
Compound `CN(C)[C@H]1C[C@H](c2c[nH]c3ccc(CC4CNC(=O)O4)cc32)C1` (single isomer, unassigned; (+)) [Example 21, (+)-5-[3-trans-3-dimethylaminocyclobutyl-1H-indol-5-lmethyl]oxazolidin-2-one] has an EC50 [2, 3] of 3630 nM and an Emax [2, 4] of 16%.
`N[C@H]1C[C@@H](c2c[nH]c3ccc(C[C@H]4COC(=O)N4)cc32)C1` [Example 1 (cis), 4-[3-(cis-3-aminocyclobutyl)-5-indolymethyl]-(4S)-oxazolidin-2-one acetate] showed an EC50 [2, 3] of 1580 nM and an Emax ([2]; rabbit) of 76%.
`N[C@H]1C[C@H](c2c[nH]c3ccc(C[C@H]4COC(=O)N4)cc32)C1` [Example 1 (trans), 4-[3-(trans-3-aminocyclobutyl)-5-indolylmethyl)-(4S)-oxazolidin-2-one acetate] was tested, and the EC50 [2] was 380 nM and the Emax ([2]; rabbit) was 78%.
`N[C@H]1C[C@H](c2c[nH]c3ccc(C[C@H]4COC(=O)N4)cc32)C1` [Example 1, 4-[3-(trans-3-aminocyclobutyl)-5-indolylmethyl)-(4S)-oxazolidin-2-one] was tested, and the “Activity P[A50 ]” value ("5-HT1 -like" receptor) was 7.8.
Work on `CN(C)[C@H]1C[C@H](c2c[nH]c3ccc(CCN4C(=O)CNC4=O)cc32)C1` [Example 3] yielded a Kb [1] of 1910 nM.
`CN(C)[C@H]1C[C@H](c2c[nH]c3ccc(C[C@H]4COC(=O)N4)cc32)C1` [Example 4, 4-[3-(trans-3-dimethylaminocyclobutyl)-1H-indol-5-ylmethyl]-(4S)oxazolidin-2-one] showed an EC50 [2, 3] of 1910 nM and an Emax [2, 4] of 9%.
In the case of `CN(C)[C@H]1C[C@H](c2c[nH]c3ccc(CCN4C(=O)NC(C)(C)C4=O)cc32)C1` [Example 5], the Kb [1] is reported as 891 nM.
In the case of `CC1(C)NC(=O)N(CCc2ccc3[nH]cc([C@H]4C[C@H](N)C4)c3c2)C1=O` [Example 6, 3-{2-[3-(trans-3-aminocyclobutyl)-1H-indol-5-yl]ethyl}-5,5-dimethylimidazolidin-2,4-dione], the Kb [1] is reported as 2690 nM.
`CN(C)[C@H]1C[C@H](c2c[nH]c3ccc(CCN4C(=O)c5ccccc5C4=O)cc32)C1` [Example 7] gave a Kb [1] of 170 nM.
With `CN(C)[C@H]1C[C@H](c2c[nH]c3ccc(CCN4C(=O)CC5(CCCCC5)CC4=O)cc32)C1` [Example 8, 3-{2-[3-(trans-3-dimethylaminocyclobutyl)-1H-indol-5-yl]ethyl}-3-azaspiro[5,5]undecane-2,4-dione] the pKb [1] was 7.18.
For `CN(C)[C@H]1C[C@H](c2c[nH]c3ccc(CN4C(=O)CNC4=O)cc32)C1` [Example 9, 3-[3-(trans-3-dimethylaminocyclobutyl)-1H-indol-5-ylmethyl]imidazolidin-2,4-dione], the Kb [1] was 9330 nM.
`CNS(=O)(=O)Cc1ccc2[nH]cc([C@H]3C[C@H](N(C)C)C3)c2c1` [Example 10, N-methyl-[3-(trans-3-dimethylaminocyclobutyl)-1H-indol-5-yl]methanesulphonamide] gave a Kb [2] of 5620 nM.
Compound `CN(C)[C@H]1C[C@H](c2c[nH]c3ccc(C[C@@H]4COC(=O)N4)cc32)C1` [Example 11, 4-[3-(trans-3-dimethylaminocyclobutyl)-1H-indol-5-ylmethyl]-(4R)oxazolidin-2-one] has a Kb [1] of 11200 nM.
Work on `CN(C)[C@H]1C[C@H](c2c[nH]c3ccc(CN4C(=O)NC(C)(C)C4=O)cc32)C1` [Example 12, 5,5-dimethyl-3-[3-(trans-3-dimethylaminocyclobutyl)-1H-indol-5-ylmethyl]imidazolidin-2,4-dione] yielded a Kb [1] of 589 nM.
`CN1C(=O)OC[C@H]1Cc1ccc2[nH]cc([C@H]3C[C@H](N(C)C)C3)c2c1` [Example 13, 4-[3-(trans-3-dimethylaminocyclobutyl)-1H-indol-5-ylmethyl]-3-methyl(4R)oxazolidin-2-one] gave an EC50 [2, 3] of 14100 nM and an Emax [2, 4] of 38%.
With `CN(C)[C@H]1C[C@H](c2c[nH]c3ccc(C(N)=O)cc32)C1` [Example 14, 5-carboxamido-3-(trans-3-dimethylaminocyclobutyl)-1H-indole] the EC50 [2] was 562 nM and the Emax ([2]; rabbit) was 52%.
With `CN(C)[C@H]1C[C@@H](c2c[nH]c3ccc(C[C@H]4COC(=O)N4)cc32)C1` [Example 15] the EC50 [2, 3] was 7080 nM and the Emax [2, 4] was 29%.
For `N[C@H]1C[C@H](c2c[nH]c3ccc(Oc4ccccc4)cc32)C1` [Example 16, 5-phenoxy-3-(trans-3-aminocyclobutyl)-1H-indole], the Kb [2] was > 316 nM.
Work on `CN(C)[C@H]1C[C@H](c2c[nH]c3ccc(Oc4ccccc4)cc32)C1` [Example 17, 5-phenoxy-3-(trans-3-dimethylaminocyclobutyl)-1H-indole] yielded a Kb [2] of 240 nM.
Compound `Cc1noc(-c2ccc3[nH]cc([C@H]4C[C@H](N(C)C)C4)c3c2)n1` [Example 18, 3-methyl-5-[3-(trans-3-dimethylaminocyclobutyl)indol-5-yl]-1,2,4-oxadiazole] has a Kb [2] of 955 nM.
For `CN[C@H]1C[C@H](c2c[nH]c3ccc(C[C@H]4COC(=O)N4)cc32)C1` [Example 22, 4-[3-(trans-3-methylaminocyclobutyl)-1H-indol-5-ylmethyl]-(4S) oxazolidin-2-one], the EC50 [2, 3] was 708 nM and the Emax [2, 4] was 72%.
Compound `CN(C)[C@H]1C[C@H](c2c[nH]c3ccc(C(=O)NCc4ccccc4)cc32)C1` [Example 23] has a Kb [1] of 1260 nM.
Compound `CN(C)[C@H]1C[C@H](c2c[nH]c3ccc(CCN4C(=O)c5ccccc5C4=O)cc32)C1` [Example 24, 2-{2-[3-(trans-3-dimethylaminocyclobutyl)-1H-indol-5-yl]ethyl} phthalamide] has an EC50 [2, 3] of 6170 nM and an Emax [2, 4] of 48%.
Compound `CN(C)[C@H]1C[C@H](c2c[nH]c3ccc(CC(N)=O)cc32)C1` [Example 25, 3-[trans-3-dimethylaminocyclobutyl]-1H-indol-5-yl acetamide] has a Kb [2] of 16600 nM.
`CN(C)[C@H]1C[C@H](c2c[nH]c3ccc(CC(=O)NCc4ccccc4)cc32)C1` [Example 26, N-benzyl-3-[trans-3-dimethylaminocyclobutyl]-1H-indol-5-yl acetamide] showed a Kb [1] of 3890 nM.
Work on `Cc1noc(Cc2ccc3[nH]cc([C@H]4C[C@H](N(C)C)C4)c3c2)n1` [Example 27, 3-methyl-5-[3-(trans-3-dimethylaminocyclobutyl)-1H-indol-5-ylmethyl] 1,2,4-oxadiazole] yielded a Kb [1] of 759000 nM.
With `Cc1nc(Cc2ccc3[nH]cc([C@H]4C[C@H](N(C)C)C4)c3c2)n[nH]1` [Example 28, 3-methyl-5-[3-(trans-3-dimethylaminocyclobutyl)-1H-indol-5-ylmethl]1,2,4-triazole] the Kb [1] was 6610 nM.
